# Data taken from ChEMBL document CHEMBL5346921, “Discovery of novel benzamide derivatives bearing benzamidophenyl and phenylacetamidophenyl scaffolds as potential antitumor agents via targeting PARP-1” (Eur J Med Chem, 2023).
# How the values were obtained:
# HCT-116 [1] = test: Inhibition of colony formation in human HCT-116 cells pretreated for 48 hrs followed by replacement of fresh medium and measured every 3 days by crystal violet staining based analysis; format: functional, cell-based; details: dose 0.3-3 µM
# [2] = Cytotoxicity against human NCM460 cells assessed as reduction in cell viability incubated for 48 hrs by MTT assay; format: toxicity, cell-based
# HCT-116 [3] = test: Induction of apoptosis in human HCT-116 cells assessed as late apoptotic cells at 1.5 uM incubated for 72 hrs by AnnexinV-FITC/PI staining based analysis (reference value: 0%); format: functional
# HCT-116 [4] = test: Induction of apoptosis in human HCT-116 cells assessed as viable cells at 0.3 uM incubated for 72 hrs by AnnexinV-FITC/PI staining based analysis (reference value: 98.95%); format: functional; details: read-out: Activity
# HCT-116 [5] = test: Induction of apoptosis in human HCT-116 cells assessed as viable cells at 7.5 uM incubated for 72 hrs by AnnexinV-FITC/PI staining based analysis (reference value: 98.95%); format: functional; details: read-out: Activity
# HCT-116 [6] = test: cells; details: Homo sapiens, HCT-116, 48 h
# HCT-116 [7] = test: Induction of cell cycle arrest in human HCT-116 cells assessed as accumulation of cells at G2/M phase at 7.5 uM incubated for 72 hrs by PI staining based flow cytometry (reference value: 25.4%); format: functional
# HCT-116 [8] = test: Induction of cell cycle arrest in human HCT-116 cells assessed as accumulation of cells at G0/G1 phase at 1.5 uM incubated for 48 hrs by PI staining based flow cytometry (reference value: 62.1%); format: functional
# HCT-116 [9] = test: Induction of apoptosis in human HCT-116 cells assessed as increase in Bax protein expression incubated for 48 hrs by western blot analysis; format: functional, cell-based; details: dose 0.3-3 µM
# HCT-116 [10] = test: Inhibition of cell migration in human HCT-116 cells at 0.3 uM incubated for 24 hrs by wound healing assay; format: functional
# HCT-116 [11] = test: Induction of cell cycle arrest in human HCT-116 cells assessed as accumulation of cells at G2/M phase at 0.3 uM incubated for 48 hrs by PI staining based flow cytometry (reference value: 24.7%); format: functional
# HCT-116 [12] = test: Induction of cell cycle arrest in human HCT-116 cells assessed as accumulation of cells at G2/M phase at 1.5 uM incubated for 72 hrs by PI staining based flow cytometry (reference value: 25.4%); format: functional
# HCT-116 [13] = test: Induction of apoptosis in human HCT-116 cells assessed as necrotic cells at 0.3 uM incubated for 48 hrs by AnnexinV-FITC/PI staining based flow cytometry (reference value: 0%); format: functional
# HCT-116 [14] = test: Inhibition of cell migration in human HCT-116 cells at 3 uM incubated for 48 hrs by wound healing assay; format: functional
# SW480 = test: cells; details: Homo sapiens, SW480, 48 h
# Description: Antiproliferative activity against human SW480 cells assessed as reduction in cell viability incubated for 48 hrs by MTT assay
# HCT-116 [15] = test: Induction of apoptosis in human HCT-116 cells assessed as early apoptotic cells at 0.3 uM incubated for 72 hrs by AnnexinV-FITC/PI staining based analysis (reference value: 1.05%); format: functional
# HCT-116 [16] = test: Induction of cell cycle arrest in human HCT-116 cells assessed as accumulation of cells at S phase at 7.5 uM incubated for 72 hrs by PI staining based flow cytometry (reference value: 16.7%); format: functional
# HCT-116 [17] = test: Induction of mitochondrial membrane potential loss in human HCT-116 cells assessed as JC-1 aggregate level by measuring red fluorescence intensity at 3 uM incubated for 48 hrs by JC-1 staining based flow cytometry (reference value: 96.72%); format: functional
# HCT-116 [18] = test: Induction of cell cycle arrest in human HCT-116 cells assessed as accumulation of cells at G2/M phase at 7.5 uM incubated for 48 hrs by PI staining based flow cytometry (reference value: 24.7%); format: functional
# HCT-116 [19] = test: Induction of apoptosis in human HCT-116 cells assessed as early apoptotic cells at 7.5 uM incubated for 48 hrs by AnnexinV-FITC/PI staining based flow cytometry (reference value: 2.11%); format: functional
# HCT-116 [20] = test: Induction of apoptosis in human HCT-116 cells assessed as viable cells at 7.5 uM incubated for 48 hrs by AnnexinV-FITC/PI staining based flow cytometry (reference value: 97.89%); format: functional; details: read-out: Activity
# HCT-116 [21] = test: Induction of apoptosis in human HCT-116 cells assessed as late apoptotic cells at 1.5 uM incubated for 48 hrs by AnnexinV-FITC/PI staining based flow cytometry (reference value: 0%); format: functional
# HCT-116 [22] = test: Inhibition of colony formation in human HCT-116 cells at 3 uM pretreated for 48 hrs followed by replacement of fresh medium and measured every 3 days by crystal violet staining based analysis; format: functional
# HCT-116 [23] = test: Induction of apoptosis in human HCT-116 cells assessed as late apoptotic cells at 7.5 uM incubated for 48 hrs by AnnexinV-FITC/PI staining based flow cytometry (reference value: 0%); format: functional
# HCT-116 [24] = test: Induction of apoptosis in human HCT-116 cells assessed as necrotic cells at 0.3 uM incubated for 72 hrs by AnnexinV-FITC/PI staining based analysis (reference value: 0%); format: functional
# HCT-116 [25] = test: Induction of apoptosis in human HCT-116 cells assessed as early apoptotic cells at 7.5 uM incubated for 72 hrs by AnnexinV-FITC/PI staining based analysis (reference value: 1.05%); format: functional
# HCT-116 [26] = test: Induction of apoptosis in human HCT-116 cells assessed as early apoptotic cells at 0.3 uM incubated for 48 hrs by AnnexinV-FITC/PI staining based flow cytometry (reference value: 2.11%); format: functional
# HCT-116 [27] = test: Induction of apoptosis in human HCT-116 cells assessed as viable cells at 1.5 uM incubated for 72 hrs by AnnexinV-FITC/PI staining based analysis (reference value: 98.95%); format: functional; details: read-out: Activity
# HCT-116 [28] = test: Induction of cell cycle arrest in human HCT-116 cells assessed as accumulation of cells at S phase at 0.3 uM incubated for 48 hrs by PI staining based flow cytometry (reference value: 14.5%); format: functional
# HCT-116 [29] = test: Induction of apoptosis in human HCT-116 cells assessed as late apoptotic cells at 0.3 uM incubated for 48 hrs by AnnexinV-FITC/PI staining based flow cytometry (reference value: 0%); format: functional
# HCT-116 [30] = test: Induction of mitochondrial membrane potential loss in human HCT-116 cells assessed as JC-1 aggregate level by measuring red fluorescence intensity at 1 uM incubated for 48 hrs by JC-1 staining based flow cytometry (reference value: 96.72%); format: functional
# HCT-116 [31] = test: Induction of apoptosis in human HCT-116 cells assessed as late apoptotic cells at 0.3 uM incubated for 72 hrs by AnnexinV-FITC/PI staining based analysis (reference value: 0%); format: functional
# DLD-1 = test: Antiproliferative activity against human DLD-1 cells assessed as reduction in cell viability incubated for 48 hrs by MTT assay; format: functional, cell-based; details: DLD-1, 48 h
# HCT-116 [32] = test: Induction of apoptosis in human HCT-116 cells assessed as increase in cleaved PARP protein expression incubated for 48 hrs by western blot analysis; format: functional, cell-based; details: dose 0.3-3 µM
# HCT-116 [33] = test: Induction of apoptosis in human HCT-116 cells assessed as viable cells at 0.3 uM incubated for 48 hrs by AnnexinV-FITC/PI staining based flow cytometry (reference value: 97.89%); format: functional; details: read-out: Activity
smiles,measurement,setting,value
NC(=O)c1ccccc1OCc1cccc(NC(=O)c2ccc(Br)cc2)c1,inhibition,HCT-116 [1],Dose-Dependent Effect
same,IC50 at 48 h,[2],487 µM
same,Activity,HCT-116 [3],0.26%
same,viability at 0.3 µM,HCT-116 [4],76.3%
same,viability at 7.5 µM,HCT-116 [5],20.5%
same,IC50,HCT-116 [6],0.3 µM
same,Activity,HCT-116 [7],45.5%
same,Activity,HCT-116 [8],56.6%
same,Activity,HCT-116 [9],Dose-Dependent Effect
same,inhibition at 0.3 µM,HCT-116 [10],12.4%
same,Activity,HCT-116 [11],28.6%
same,Activity,HCT-116 [12],35.5%
same,Activity,HCT-116 [13],0.23%
same,inhibition at 3 µM,HCT-116 [14],43.2%
same,IC50,SW480,33.7 µM
same,Activity,HCT-116 [15],23.69%
same,Activity,HCT-116 [16],20.3%
same,Activity,HCT-116 [17],49.97%
same,Activity,HCT-116 [18],41%
same,Activity,HCT-116 [19],40.9%
same,viability at 7.5 µM,HCT-116 [20],57.4%
same,Activity,HCT-116 [21],2.97%
same,inhibition at 3 µM,HCT-116 [22],100%
same,Activity,HCT-116 [23],1.19%
same,Activity,HCT-116 [24],0%
same,Activity,HCT-116 [25],79.44%
same,Activity,HCT-116 [26],9.12%
same,viability at 1.5 µM,HCT-116 [27],69.3%
same,Activity,HCT-116 [28],11%
same,Activity,HCT-116 [29],0.25%
same,Activity,HCT-116 [30],85.84%
same,Activity,HCT-116 [31],0%
same,IC50,DLD-1,2.83 µM
same,Activity,HCT-116 [32],Dose-Dependent Effect
same,viability at 0.3 µM,HCT-116 [33],90.4%
